# Patent US20250032437A1, “D-Serine Inhibits Neuroinflammation Due To A Brain Injury” (Florida State University Research Foundation, Inc., priority 2019, published 2025)
# Test system: entorhinal cortex (neurons, astrocytes, microglia) of animals made epileptic with a chemo-convulsant
# Assay: D-serine injected into the entorhinal area in an animal model of Temporal Lobe Epilepsy; neurons, astrocytes and microglia identified with fluorescent-tagged antibodies
# Assay type: in vivo
# Protocol: These cells cause inflammation in brain tissue by releasing cytokines. These neuroinflammatory cell types were identified using fluorescent-tagged antibodies first in control animals and then in animals that were made epileptic using a well-established animal model of Temporal Lobe Epilepsy. […] In a separate sample of animals, D-serine was injected into the entorhinal area prior to making them epileptic with a chemo-convulsant and immediately after administration of the chemo-convulsant.
# [1] = D-serine injected into the entorhinal area, FIG. 2 vs FIG. 3
smiles,measurement,setting,value
N[C@H](CO)C(=O)O [D-serine],development of epilepsy after chemo-convulsant,D-serine injected into the entorhinal area prior to and immediately after administration of the chemo-convulsant,did not become epileptic
same,astrocytes in the entorhinal region (GFAP),[1],fewer astrocytes
same,neurons in the entorhinal cortex (NeuN) compared with the epileptic animals,[1],significant rescue of neurons
same,infiltration of microglia to the entorhinal region (OX42),"D-serine injected into the entorhinal area, FIG. 7 vs FIG. 8",significantly reduced
